Active and inactive are the calls of the source.
Legend:
[1] = CTGF mRNA reduction under YAP1 overexpression, dose response, mechanism study for YAP1 pathway inhibitor project, DLD1 cells, RT-qPCR, cherry-pick (AID 1053127); type: functional, cell-based; settings: DLD-1
[2] = A549 cell cytotoxicity, dose response, cytotoxicity control, plate reader, cherry-pick, antagonist series (AID 743412); type: functional, cell-based
[3] = LGR2 antagonists, dose response, cell-based, HEK293, CRE-luciferase reporter, cherry pick, set 2 (AID 743343); type: functional;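 also: transfected cells were stimulated with diluted bursicon conditioned medium after compound addition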
[4] = HepG2 cell cytotoxicity, dose response, cytotoxicity control, cherry-picks, set 5 (AID 1053118); type: functional, cell-based
[5] = HEK293 cell cytotoxicity, dose response, cytotoxicity control, cherry-picks, set 5 (AID 1053117); type: functional, cell-based
[6] = A549 cell cytotoxicity, dose response, cytotoxicity control, cherry-picks, 26 µM top dose (AID 1053119); type: functional, cell-based
[7] = MC4R antagonists, dose response, counter-screen for LGR2 antagonist project, cell-based, plate reader, cherry pick (AID 743444); type: functional;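 also: transfected HEK 293 cells stimulated with alpha-MSH peptide; potency of inhibitors of the alpha-MSH evoked signal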
[8] = inhibitors of fibronectin matrix deposition, dose response, AH1F cells, Alexa488-FN fluorescence, cherry-picks (AID 1035475); type: functional, cell-based
[9] = HEK293 cell cytotoxicity, dose response, cytotoxicity control, plate reader, cherry-picked samples (AID 743446); type: functional, cell-based
[10] = P. falciparum Dd2 blood-stage growth inhibition, dose response, SYBR Green fluorescence, erythrocytes, dry powder, set 2 (AID 1159574); type: functional, cell-based
[11] = target: RNA-editing ligase 1, mitochondrial (Trypanosoma brucei brucei, UniProt P86926); assay: TbREL1 ligase inhibitors, dose response, biochemical, fluorescence, Trypanosoma brucei (AID 1117295); type: functional
[12] = P. falciparum Dd2 growth inhibitors, dose response, SYBR Green, dry powder samples, set 9 (AID 1159568); type: functional, cell-based
[13] = P. falciparum 3D7-ScDHODH growth inhibitors, dose response, SYBR Green, dry powder samples (AID 1159570); type: functional, cell-based;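 also: parasite growth measured after 72 hours of compound exposure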
[14] = HepG2 cell cytotoxicity, dose response, cytotoxicity control, plate reader, dry powder samples (AID 1159569); type: functional, cell-based;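 also: inhibitor potency with signal falling toward the positive control level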
[15] = P. falciparum Dd2 growth inhibitors, dose response, SYBR Green, cherry-picked samples (AID 1159567); type: functional, cell-based
[16] = P. falciparum Dd2 growth inhibitors, dose response, SYBR Green, dry powder samples (AID 1159566); type: functional, cell-based;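 also: potency for growth inhibition with lower SYBR green DNA signal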
[17] = P. falciparum ATP4 D1247Y mutant growth inhibitors, dose response, NITD609-resistant line, SYBR Green, dry powder (AID 1159571); type: functional, cell-based;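 also: parasites synchronized at ring stage by sorbitol before testing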
[18] = TB: CFU replicating Measured in Microorganism System Using Imaging - 7108-05_Inhibitor_Dose_DryPowder_Activity_Set2.; type: functional
[19] = microbe, parasite or virus in culture; type: functional; settings: Mycobacterium tuberculosis
[20] = target: T1, Ubiquitin-conjugating enzyme E2 N (Homo sapiens, UniProt P61088); type: functional;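 also: Dose-response confirmation in a TR-FRET assay detecting UBC13-driven polyubiquitin chain formation, inhibition measured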
T1 sequence (P61088 whole entry): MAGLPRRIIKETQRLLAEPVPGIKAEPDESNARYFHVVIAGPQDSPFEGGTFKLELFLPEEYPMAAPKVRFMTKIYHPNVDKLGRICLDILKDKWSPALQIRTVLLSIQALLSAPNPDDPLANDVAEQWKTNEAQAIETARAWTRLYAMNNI

[21] = target: Heat shock protein HSP 90-alpha (Homo sapiens, UniProt P07900); type: functional, organism-based
[22] = Concentration-dependent survival of SW480 colon cancer line, luminescence detection with CellTiter-Glo, half-maximal inhibitory concentration (AID 1117338); type: functional
[23] = RKO cell viability reduction, dose response, CellTiter-Glo luminescence (AID 1117322); type: functional
[24] = cytotoxicity toward HCT116 cells – cell-based, CellTiter-Glo luminescence, IC50, dose response (AID 1117332); type: functional; settings: HCT-116
[25] = SNU-C1 cell viability reduction, dose response, CellTiter-Glo luminescence (AID 1117323); type: functional, cell-based
[26] = half-maximal inhibitory concentration for glucagon-like peptide-1 release, STC-1 cell line, dose-response (AID 1117345); type: functional, cell-based
[27] = cytotoxicity toward Colo320 cells – cell-based, CellTiter-Glo luminescence, IC50, dose response (AID 1117334); type: functional; settings: COLO 320
[28] = cytotoxicity toward HT-29 cells – cell-based, CellTiter-Glo luminescence, IC50, dose response (AID 1117330); type: functional
[29] = CellTiter-Glo luminescent dose response of DLD-1 viability loss (AID 1117352); type: functional
[30] = HCT116 cell viability decrease, GSK3B pretreatment – CellTiter-Glo, IC50, dose response (AID 1117339); type: functional; settings: HCT-116
[31] = Glucagon-like peptide 1 release potency, NCI-H716 cell line, dose-response, half-maximal inhibitory concentration (AID 1117344); type: functional, cell-based
[32] = HeLa 2N DNA content increase, dose response, cell-based, IC50 (AID 1117349); type: functional
[33] = HeLa 4N DNA content increase, dose response, cell-based, IC50 (AID 1117351); type: functional

Chain of RNA-editing ligase 1, mitochondrial (P86926 whole entry): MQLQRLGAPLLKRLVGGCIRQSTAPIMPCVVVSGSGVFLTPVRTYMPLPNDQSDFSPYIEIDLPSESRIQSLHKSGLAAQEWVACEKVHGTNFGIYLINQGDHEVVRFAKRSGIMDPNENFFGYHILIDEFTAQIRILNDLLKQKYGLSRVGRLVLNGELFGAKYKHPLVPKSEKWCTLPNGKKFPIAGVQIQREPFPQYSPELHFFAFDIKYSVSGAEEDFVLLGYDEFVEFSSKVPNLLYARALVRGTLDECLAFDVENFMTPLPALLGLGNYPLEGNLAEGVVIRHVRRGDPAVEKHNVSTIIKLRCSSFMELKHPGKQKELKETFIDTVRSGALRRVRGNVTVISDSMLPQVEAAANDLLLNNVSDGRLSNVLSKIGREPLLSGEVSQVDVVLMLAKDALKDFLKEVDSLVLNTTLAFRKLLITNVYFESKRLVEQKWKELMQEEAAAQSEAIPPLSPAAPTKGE

## COc1ccccc1C(=O)Nc1ccc2c(c1)C(=O)N(C)C[C@H](OC)[C@@H](C)CN(C(C)=O)[C@@H](C)CO2
[1]
  AC50: 8.95 µM (active)

## C[C@@H]1CN([C@@H](C)CO)C(=O)c2cccc(NC(=O)Nc3ccc(C(F)(F)F)cc3)c2O[C@@H]1CN(C)C(=O)Nc1cccc2ccccc12
[2]
  AC50: 27.8 µM (active)
[3]
  AC50: 25 µM (active)
[4]
  AC50: 10.2 µM (active)
[5]
  AC50: 12.7 µM (active)
[6]
  AC50: 12.8 µM (active)
[7]
  AC50: 22.8 µM (active)
[8]
  AC50: 12.9 µM (active)
[9]
  AC50: > 52 µM (inactive)

## COc1ccc(S(=O)(=O)N(C)C[C@H]2OCc3ccccc3-c3c(n(C)c4ccccc34)C(=O)N([C@H](C)CO)C[C@H]2C)cc1
[10]
  AC50: 6.22 µM (active)

## COC(=O)C1=C(C)N(Cc2ccccc2C(F)(F)F)C(NCc2ccc(OC)cc2)=NC1c1cccc(Cl)c1 (stereo not drawn)
[11]
  IC50: > 96.6 µM (inactive)

## Cc1ccc(S(=O)(=O)N(C)C[C@@H]2Oc3cc(C#CC4CCCC4)ccc3S(=O)(=O)N([C@@H](C)CO)C[C@H]2C)cc1
[12]
  AC50: 1.33 µM (active)

## COc1ccc(C#Cc2ccc([C@@H]3[C@@H](CO)N4CCCCN(C(=O)Nc5ccccc5F)C[C@H]34)cc2)cc1
[13]
  AC50: 1.37 µM (active)
[14]
  AC50: 15.7 µM (active)
[15]
  AC50: 1.89 µM (active)
[16]
  AC50: 0.8 µM (active)
[17]
  AC50: 1.45 µM (active)

## Cc1cccc(C(=O)Nc2nc3ccccc3n2C)c1
[18]
  AbsAC90: 360.23 µM

## Clc1ccc(CCC(Cn2ccnc2)Sc2c(Cl)cccc2Cl)cc1 (stereo not drawn) [BUTOCONAZOLE NITRATE]
[19]
  CC50: 37.6 µM (active)
[20]
  IC50: > 20 µM (inactive)
[21]
  AC50: < 0.195 µM (active)
[22]
  IC50: 1.69 µM (active)
[23]
  IC50: 2.3 µM (active)
[24]
  IC50: 2.06 µM (active)
[25]
  IC50: 0.996 µM (active)
[26]
  IC50: 7 µM (inactive)
[27]
  IC50: 0.221 µM (active)
[28]
  IC50: 3.01 µM (active)
[29]
  IC50: 1.84 µM (active)
[30]
  IC50: 0.841 µM (active)
[31]
  IC50: 16 µM (inactive)

## COc1cc(-c2ccc(=O)[nH]n2)ccc1OC(F)F [ZARDAVERINE]
[32]
  IC50: > 10 µM (inactive)
[33]
  IC50: > 10 µM (inactive)
